Measured values published in US12180207B2 (ARRAY BIOPHARMA INC., priority 2018, dated 2024).

What was measured:
[1] = biological target: dephosphorylated FGFR1 (SEQ ID NO: 1, amino acids 458 to 765) (Homo sapiens (Human), UniProt P11362); experiment: FGFR enzyme binding assay (HTRF tracer displacement), FGFR1; conditions: 5 nM dephosphorylated FGFR1, average of multiple determinations if made
How it was run: (§1)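 Compounds were tested for displacement of a tracer from human FGFR kinase in a time-resolved FRET binding format. After 60 minutes at 22° C, signal was read at two wavelengths and converted to percent of control, normalised between untreated wells and 1 μM reference inhibitor.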

[2] = biological target: phosphorylated FGFR3 (SEQ ID NO: 5, amino acids 449 to 759) (Homo sapiens (Human), UniProt P22607); experiment: FGFR enzyme binding assay (HTRF tracer displacement), FGFR3; conditions: 5 nM phosphorylated FGFR3, average of multiple determinations if made
How it was run: as §1

[3] = biological target: FGFR1 (SEQ ID NO: 1, amino acids 458-765) (Homo sapiens (Human), UniProt P11362); experiment: LC/MS FGFR1 kobs assay (covalent protein modification); assay type: binding; conditions: 500 nM FGFR1, 3 μM compound
How it was run: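 Covalent labeling of FGFR1 kinase domain (aa 458-765) tracked over time by intact-protein LC/MS after formic acid quench. kobs derived by fitting DMSO-normalized percent unmodified FGFR1 to an exponential decay model.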

[4] = biological target: FGFR3 (SEQ ID NO: 5, amino acids 449-759) (Homo sapiens (Human), UniProt P22607); experiment: LC/MS FGFR3 kobs assay (covalent protein modification); assay type: binding; conditions: 500 nM FGFR3, 3 μM compound
How it was run: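 Covalent modification of FGFR1 (aa 458-765) or FGFR3 (aa 449-759) followed over time; reactions quenched with 0.4% formic acid and analysed by Q-TOF LC/MS after deconvolution. Percent unmodified protein, normalized to DMSO controls, fit to exponential decay to give kobs; averaged where repeated.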

[5] = biological target: HEK-293 cells transfected with dox-inducible human wild type FGFR1 (Homo sapiens (Human), UniProt P11362); experiment: FGFR1 pERK cell assay; assay type: cell-based; conditions: HEK-293 dox-inducible FGFR1, 1 hour compound, 100 ng/ml FGF-acidic; maximum concentration 5 μM
How it was run: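 In HEK-293 cells with dox-induced human wild-type FGFR1, compounds (1:3 dilutions, top 5 μM final) were applied 1 h at 37°C before 5 min stimulation with 100 ng/ml FGF-acidic. Phospho-ERK1/2 measured by MSD sandwich immunoassay; IC50 from 4-parameter fit of POC versus vehicle and control compound.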

[6] = biological target: HEK-293 cells transfected with dox-inducible human wild type FGFR3 (Homo sapiens (Human), UniProt P22607); experiment: FGFR3 pERK cell assay; assay type: cell-based; conditions: HEK-293 dox-inducible FGFR3, 1 hour compound, 100 ng/ml FGF-acidic; maximum concentration 5 μM
How it was run: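 Doxycycline-induced cells preincubated 1 h at 37 °C with compound (1:3 dilutions, top 5 μM final), then stimulated 5 min with 100 ng/ml FGF-acidic. Lysate phospho-ERK1/2 measured by MSD sandwich assay; IC50 at 50 POC from 4-parameter fit, normalised to no-compound and control-compound wells.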

Chain of FGFR1 (SEQ ID NO: 1, amino acids 458-765) (P11362 458-765): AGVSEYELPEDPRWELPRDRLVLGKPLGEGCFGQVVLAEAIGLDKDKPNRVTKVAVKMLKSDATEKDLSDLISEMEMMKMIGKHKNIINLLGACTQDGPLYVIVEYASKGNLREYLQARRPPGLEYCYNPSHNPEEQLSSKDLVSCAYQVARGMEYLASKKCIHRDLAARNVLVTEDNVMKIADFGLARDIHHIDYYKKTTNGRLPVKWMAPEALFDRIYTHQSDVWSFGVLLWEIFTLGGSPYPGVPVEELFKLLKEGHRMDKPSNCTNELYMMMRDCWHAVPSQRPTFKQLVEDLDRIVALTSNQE
Chain of dephosphorylated FGFR1 (SEQ ID NO: 1, amino acids 458 to 765) (P11362 458-765): as above
Chain of FGFR3 (SEQ ID NO: 5, amino acids 449-759) (P22607 449-759): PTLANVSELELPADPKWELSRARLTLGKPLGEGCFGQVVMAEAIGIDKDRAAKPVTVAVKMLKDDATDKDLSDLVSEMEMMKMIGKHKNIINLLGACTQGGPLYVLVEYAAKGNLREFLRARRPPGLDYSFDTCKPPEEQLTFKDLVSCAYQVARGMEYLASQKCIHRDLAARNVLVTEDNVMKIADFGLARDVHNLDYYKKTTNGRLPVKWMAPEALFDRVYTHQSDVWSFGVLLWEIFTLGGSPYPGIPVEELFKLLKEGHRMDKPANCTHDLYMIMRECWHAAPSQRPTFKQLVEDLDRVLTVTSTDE
Chain of phosphorylated FGFR3 (SEQ ID NO: 5, amino acids 449 to 759) (P22607 449-759): as above
Chain of HEK-293 cells transfected with dox-inducible human wild type FGFR1 (P11362 22-822): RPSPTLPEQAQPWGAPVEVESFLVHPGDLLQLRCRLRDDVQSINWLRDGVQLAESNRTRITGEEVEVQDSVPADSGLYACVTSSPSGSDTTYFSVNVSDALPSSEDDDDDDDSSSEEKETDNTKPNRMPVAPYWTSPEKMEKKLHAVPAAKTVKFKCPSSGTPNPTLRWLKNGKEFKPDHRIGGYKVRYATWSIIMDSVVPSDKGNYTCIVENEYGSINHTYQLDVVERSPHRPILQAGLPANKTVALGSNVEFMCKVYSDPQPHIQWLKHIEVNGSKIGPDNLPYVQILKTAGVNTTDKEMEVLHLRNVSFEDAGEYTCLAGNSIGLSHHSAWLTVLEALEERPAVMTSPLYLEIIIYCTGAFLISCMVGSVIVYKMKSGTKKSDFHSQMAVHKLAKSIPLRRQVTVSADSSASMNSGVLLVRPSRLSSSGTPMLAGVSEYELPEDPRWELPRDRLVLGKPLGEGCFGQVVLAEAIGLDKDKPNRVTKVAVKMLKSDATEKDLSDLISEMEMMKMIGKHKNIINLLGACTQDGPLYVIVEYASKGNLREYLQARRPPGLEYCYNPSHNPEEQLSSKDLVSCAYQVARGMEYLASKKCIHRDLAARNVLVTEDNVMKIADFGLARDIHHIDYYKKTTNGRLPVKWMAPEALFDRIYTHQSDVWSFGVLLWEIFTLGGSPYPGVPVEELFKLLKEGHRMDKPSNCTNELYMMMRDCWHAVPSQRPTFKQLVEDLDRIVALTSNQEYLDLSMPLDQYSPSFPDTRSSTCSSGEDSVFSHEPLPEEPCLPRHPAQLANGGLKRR
Chain of HEK-293 cells transfected with dox-inducible human wild type FGFR3 (P22607 23-806): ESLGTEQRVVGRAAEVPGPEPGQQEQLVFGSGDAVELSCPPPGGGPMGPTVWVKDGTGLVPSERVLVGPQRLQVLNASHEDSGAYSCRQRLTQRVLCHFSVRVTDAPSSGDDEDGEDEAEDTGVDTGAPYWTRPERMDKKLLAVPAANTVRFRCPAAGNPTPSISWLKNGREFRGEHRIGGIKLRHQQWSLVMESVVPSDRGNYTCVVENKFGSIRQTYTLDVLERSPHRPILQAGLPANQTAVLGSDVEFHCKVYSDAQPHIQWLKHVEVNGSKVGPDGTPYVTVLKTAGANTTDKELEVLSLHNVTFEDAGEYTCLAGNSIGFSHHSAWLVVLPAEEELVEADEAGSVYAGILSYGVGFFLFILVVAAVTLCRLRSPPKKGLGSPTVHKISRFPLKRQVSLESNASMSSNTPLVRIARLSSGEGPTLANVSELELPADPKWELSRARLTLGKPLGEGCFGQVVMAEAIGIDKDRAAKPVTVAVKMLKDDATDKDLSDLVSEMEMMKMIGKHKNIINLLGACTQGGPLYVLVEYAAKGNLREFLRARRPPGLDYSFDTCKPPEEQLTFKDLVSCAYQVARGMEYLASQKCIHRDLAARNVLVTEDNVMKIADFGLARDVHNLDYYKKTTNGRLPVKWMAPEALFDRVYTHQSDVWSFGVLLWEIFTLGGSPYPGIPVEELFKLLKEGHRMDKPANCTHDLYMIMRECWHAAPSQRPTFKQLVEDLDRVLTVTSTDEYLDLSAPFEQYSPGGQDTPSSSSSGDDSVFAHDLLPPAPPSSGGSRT

Row | IC50 [1] [µM] | IC50 [2] [µM] | FGFR1 Enz kobs [3] [min⁻¹] | FGFR3 Enz kobs [4] [min⁻¹] | IC50 [5] [µM] | IC50 [6] [µM] | Compound
1 | 0.141 | 0.019 | 0.00277 | 0.02585 | 1.23 | 0.164 | C=CC(=O)N1CC(C(=O)N2CCN(c3cnc(-c4cc(OC)c5c(C#N)cnn5c4)cn3)CC2)C1 [Example 116, 6-(5-(4-(1-acryloylazetidine-3-carbonyl)piperazin-1-yl)pyrazin-2-yl)-4-methoxypyrazolo[1,5-a]pyridine-3-carbonitrile]
2 | 0.814 | 0.019 | 0.00318 | 0.03885 | 1.2 | 0.036 | C=CC(=O)N1CC(OC)(C(=O)N2CCC(n3ncc(-c4cc(OC)c5c(Cl)cnn5c4)c3C)CC2)C1 [Example 117, 1-(3-(4-(4-(3-chloro-4-methoxypyrazolo[1,5-a]pyridin-6-yl)-5-methyl-1H-pyrazol-1-yl)piperidine-1-carbonyl)-3-methoxyazetidin-1-yl)prop-2-en-1-one]
3 | 0.455 | 0.009 | 0.00303 | 0.02502 | 0.674 | 0.062 | C=CC(=O)N1CC(CN2CCC(n3ncc(-c4cc(OC)c5c(Cl)cnn5c4)c3C)CC2)C1 [Example 118, 1-(3-((4-(4-(3-chloro-4-methoxypyrazolo[1,5-a]pyridin-6-yl)-5-methyl-1H-pyrazol-1-yl)piperidin-1-yl)methyl)azetidin-1-yl)prop-2-en-1-one]
4 | 0.565 | 0.008 | 0.00359 | 0.04536 | 0.591 | 0.05 | C=CC(=O)N1CC(CN2CCC(n3ncc(-c4cc(OC)c5c(Cl)cnn5c4)c3C)CC2)(OC)C1 [Example 119, 1-(3-((4-(4-(3-chloro-4-methoxypyrazolo[1,5-a]pyridin-6-yl)-5-methyl-1H-pyrazol-1-yl)piperidin-1-yl)methyl)-3-methoxyazetidin-1-yl)prop-2-en-1-one]
5 | 0.4 | 0.033 | 0.00068 | 0.00758 | 0.523 | 0.142 | C=CC(=O)N1CC(CN2CCC(n3ncc(-c4cc(OC)c5c(Cl)cnn5c4)c3C)CC2)C1(C)C (stereo not drawn) [Example 120, 1-(3-((4-(4-(3-chloro-4-methoxypyrazolo[1,5-a]pyridin-6-yl)-5-methyl-1H-pyrazol-1-yl)piperidin-1-yl)methyl)-2,2-dimethylazetidin-1-yl)prop-2-en-1-one]
6 | 0.114 | 0.003 | 0.00369 | 0.06393 | 0.169 | 0.025 | C=CC(=O)N1CC(F)(C(=O)N2CCC(n3cc(-c4cc(OC)c5c(Cl)cnn5c4)cn3)CC2)C1 [Example 121, 1-(3-(4-(4-(3-chloro-4-methoxypyrazolo[1,5-a]pyridin-6-yl)-1H-pyrazol-1-yl)piperidine-1-carbonyl)-3-fluoroazetidin-1-yl)prop-2-en-1-one]

Further lines, the molecule ahead of its results:

Row | Compound | IC50 [1] [µM] | IC50 [2] [µM] | FGFR1 Enz kobs [3] [min⁻¹] | FGFR3 Enz kobs [4] [min⁻¹] | IC50 [5] [µM] | IC50 [6] [µM]
7 | C=CC(=O)N1CC(C(=O)N2C[C@@H]3C[C@H]2CN3c2ccc(-c3cc(OC)c4c(C#N)cnn4c3)cn2)C1 [Example 106, 6-(6-((1S,4S)-5-(1-acryloylazetidine-3-carbonyl)-2,5-diazabicyclo[2.2.1]heptan-2-yl)pyridin-3-yl)-4-methoxypyrazolo[1,5-a]pyridine-3-carbonitrile] | 0.062 | 0.009 | 0.00246 | 0.01259 | 0.955 | 0.244
8 | C=CC(=O)N1CC(C(=O)N2C[C@H]3C[C@@H]2CN3c2ccc(-c3cc(OC)c4c(C#N)cnn4c3)cn2)C1 [Example 107, 6-(6-((1R,4R)-5-(1-acryloylazetidine-3-carbonyl)-2,5-diazabicyclo[2.2.1]heptan-2-yl)pyridin-3-yl)-4-methoxypyrazolo[1,5-a]pyridine-3-carbonitrile] | 0.108 | 0.016 | 0.00291 | 0.01688 | 1.35 | 0.355
9 | C=CC(=O)N1CC(CN2C[C@H]3C[C@@H]2CN3c2ccc(-c3cc(OC)c4c(C#N)cnn4c3)cn2)C1 [Example 108, 6-(6-((1R,4R)-5-((1-acryloylazetidin-3-yl)methyl)-2,5-diazabicyclo[2.2.1]heptan-2-yl)pyridin-3-yl)-4-methoxypyrazolo[1,5-a]pyridine-3-carbonitrile] | 0.055 | 0.011 | 0.00291 | 0.01344 | 0.116 | 0.047
10 | C=CC(=O)N1CC(C(=O)N2CCN(c3ccc(-c4cc(OC)c5c(C#N)cnn5c4)cn3)CC2)C1 [Example 111, 6-(6-(4-(1-acryloylazetidine-3-carbonyl)piperazin-1-yl)pyridin-3-yl)-4-methoxypyrazolo[1,5-a]pyridine-3-carbonitrile] | 0.144 | 0.011 | 0.00263 | 0.04009 | 0.288 | 0.034
11 | C=CC(=O)N1CC(F)(C(=O)N2CCN(c3ccc(-c4cc(OC)c5c(C#N)cnn5c4)cn3)CC2)C1 [Example 112, 6-(6-(4-(1-acryloyl-3-fluoroazetidine-3-carbonyl)piperazin-1-yl)pyridin-3-yl)-4-methoxypyrazolo[1,5-a]pyridine-3-carbonitrile] | 0.082 | 0.004 | 0.00852 | 0.1108 | 0.122 | 0.021
12 | C=CC(=O)N1CC(C(=O)N2CCN(c3ncc(-c4cc(OC)c5c(C#N)cnn5c4)cc3C)CC2)C1 [Example 113, 6-(6-(4-(1-acryloylazetidine-3-carbonyl)piperazin-1-yl)-5-methylpyridin-3-yl)-4-methoxypyrazolo[1,5-a]pyridine-3-carbonitrile] | 0.388 | 0.045 | 0.00304 | 0.02175 | 1.57 | 0.186
13 | C=CC(=O)N1CC(F)(C(=O)N2CCN(c3cc(C)c(-c4cc(OC)c5c(C#N)cnn5c4)cn3)CC2)C1 [Example 114, 6-(6-(4-(1-acryloyl-3-fluoroazetidine-3-carbonyl)piperazin-1-yl)-4-methylpyridin-3-yl)-4-methoxypyrazolo[1,5-a]pyridine-3-carbonitrile] | 0.85 | 0.063 | 0.00369 | 0.03264 | 1.31 | 0.248
14 | C=CC(=O)N1CC(C(=O)N2CCN(c3ccc(-c4cc(OC)c5c(C#N)cnn5c4)nn3)CC2)C1 [Example 115, 6-(6-(4-(1-acryloylazetidine-3-carbonyl)piperazin-1-yl)pyridazin-3-yl)-4-methoxypyrazolo[1,5-a]pyridine-3-carbonitrile] | 0.09 | 0.011 | 0.0016 | 0.01937 | ≥ 5 | 1.24
